Assay results: US7196110B2, “N-substituted tricyclic 3-aminopyrazoles as inhibitors for the treatment of cell proliferative disorders” (Janssen Phamaceutica N.V., priority 2002, dated 2007)

Biological target: T1, PDGF-receptor beta enzyme comprising the tyrosine kinase domain (Homo sapiens, UniProt P09619)
T1 construct: from amino acid 545 to 1106 of GenBank Access NO: AAA36427
Assay: Inhibition of PDGF-receptor kinase activity (cell-free, PLC1 peptide, 33P Flashplate)
Format: biochemical
Details: PDGF-R kinase activity; for inhibition at 10 µM: compound at 10 uM, read-out: Percent Inhibition @ 10 uM; for IC50: read-out: IC50
Outline: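 Recombinant kinase domain (aa 545–1106) phosphorylated a biotinylated PLC1 peptide with 5 μM ATP plus 33P-γ-ATP, in Tris pH 8, MgCl2, Na3VO4 and 1 mM DTT, for 60 min at 30 °C. Retained 33P was counted after washing. IC50 is the concentration halving activity versus no-inhibitor reactions.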

T1 sequence (P09619 545-1106): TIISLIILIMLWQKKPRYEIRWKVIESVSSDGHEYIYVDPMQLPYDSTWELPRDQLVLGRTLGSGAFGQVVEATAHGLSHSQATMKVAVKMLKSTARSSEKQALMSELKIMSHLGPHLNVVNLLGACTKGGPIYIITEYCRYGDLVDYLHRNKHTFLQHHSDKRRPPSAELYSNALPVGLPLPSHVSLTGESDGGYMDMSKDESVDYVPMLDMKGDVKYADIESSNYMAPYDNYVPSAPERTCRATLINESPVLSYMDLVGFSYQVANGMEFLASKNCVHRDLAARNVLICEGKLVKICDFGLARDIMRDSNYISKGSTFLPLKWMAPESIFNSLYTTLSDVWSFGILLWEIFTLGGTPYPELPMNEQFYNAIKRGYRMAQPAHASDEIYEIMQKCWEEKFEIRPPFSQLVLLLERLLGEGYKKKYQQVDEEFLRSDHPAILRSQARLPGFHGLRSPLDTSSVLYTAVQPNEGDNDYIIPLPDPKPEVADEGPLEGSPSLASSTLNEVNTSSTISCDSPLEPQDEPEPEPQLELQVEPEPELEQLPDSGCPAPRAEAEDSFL

| Structure (SMILES) | inhibition at 10 µM [%] | IC50 [nM] |
| --- | --- | --- |
| COc1ccc2c(c1)-c1n[nH]c(Nc3cc(F)ccc3F)c1C2 [Compound 176, (2,5-Difluoro-phenyl)-(7-methoxy-2,4-dihydro-indeno[1,2-c]pyrazol-3-yl)-amine] | 46.5 | 318 |
| Fc1ccc(F)c(Nc2[nH]nc3c2Cc2cc(Cl)ccc2-3)c1 [Compound 192, (6-Chloro-2,4-dihydro-indeno[1,2-c]pyrazol-3-yl)-(2,5-difluoro-phenyl)-amine] | 67 | 103 |
| FC(F)(F)c1cc(Nc2[nH]nc3c2Cc2cc(Cl)ccc2-3)cc(C(F)(F)F)c1 [Compound 195, (3,5-Bis-trifluoromethyl-phenyl)-(6-chloro-2,4-dihydro-indeno[1,2-c]pyrazol-3-yl)-amine] | 76 | 2280 |
| COc1cc2c(cc1OC)-c1n[nH]c(Nc3cc(C)cc(C)c3)c1C2 [Compound 206, (6,7-Dimethoxy-2,4-dihydro-indeno[1,2-c]pyrazol-3-yl)-(3,5-dimethyl-phenyl)-amine] | 63 | 640 |
| CCOC(=O)c1cccc(Nc2[nH]nc3c2Cc2cc(OC)c(OC)cc2-3)c1 [Compound 210, 3-(6,7-Dimethoxy-2,4-dihydro-indeno[1,2-c]pyrazol-3-ylamino)-benzoic acid ethyl ester] | 90 | 67.2 |
| COc1cc2c(cc1OCCCN1CCN(C)CC1)Cc1c-2n[nH]c1Nc1cccc(Cl)c1 [Compound 213, (3-Chloro-phenyl)-{7-methoxy-6-[3-(4-methyl-piperazin-1-yl)-propoxy]-2,4-dihydro-indeno[1,2-c]pyrazol-3-yl}-amine] | 82 | 2.7 |
| COc1cc2c(cc1OCCCN1CCN(C)CC1)Cc1c-2n[nH]c1Nc1ccc(F)c(Cl)c1 [Compound 214, (3-Chloro-4-fluoro-phenyl)-{7-methoxy-6-[3-(4-methyl-piperazin-1-yl)-propoxy]-2,4-dihydro-indeno[1,2-c]pyrazol-3-yl}-amine] | 46 | – |
| COc1cccc(Nc2[nH]nc3c2Cc2cc(OCCCN4CCN(C)CC4)c(OC)cc2-3)c1 [Compound 215, {7-Methoxy-6-[3-(4-methyl-piperazin-1-yl)-propoxy]-2,4-dihydro-indeno[1,2-c]pyrazol-3-yl}-(3-methoxy-phenyl)-amine] | 99 | 5.7 |
| COc1cc2c(cc1OCCCN1CCN(C)CC1)Cc1c-2n[nH]c1Nc1cccc(F)c1 [Compound 216, (3-Fluoro-phenyl)-{7-methoxy-6-[3-(4-methyl-piperazin-1-yl)-propoxy]-2,4-dihydro-indeno[1,2-c]pyrazol-3-yl}-amine] | 100 | 5.8 |
| COc1cc2c(cc1OC)-c1n[nH]c(NCc3ccc(Cl)c(Cl)c3)c1C2 [Compound 219, (3,4-Dichloro-benzyl)-(6,7-dimethoxy-2,4-dihydro-indeno[1,2-c]pyrazol-3-yl)-amine] | 39 | – |
| COc1cc2c(cc1OC)-c1n[nH]c(NCC3CCCCC3)c1C2 [Compound 220, Cyclohexylmethyl-(6,7-dimethoxy-2,4-dihydro-indeno[1,2-c]pyrazol-3-yl)-amine] | 73 | 3290 |
| COc1cc2c(cc1OC)-c1n[nH]c(Nc3ccc(S(=O)(=O)C4CCNCC4)cc3)c1C2 [Compound 221, (6,7-Dimethoxy-2,4-dihydro-indeno[1,2-c]pyrazol-3-yl)-[4-(piperidine-4-sulfonyl)-phenyl]-amine] | 71 | 1600 |
| COc1cc2c(cc1OC)-c1n[nH]c(NCc3ccc(C)cc3)c1C2 [Compound 222, (6,7-Dimethoxy-2,4-dihydro-indeno[1,2-c]pyrazol-3-yl)-(4-methyl-benzyl)-amine] | 70 | 806 |
| COc1cc2c(cc1OC)-c1n[nH]c(NCc3ccccc3C)c1C2 [Compound 223, (6,7-Dimethoxy-2,4-dihydro-indeno[1,2-c]pyrazol-3-yl)-(2-methyl-benzyl)-amine] | 97 | 45.9 |
| COc1ccccc1CNc1[nH]nc2c1Cc1cc(OC)c(OC)cc1-2 [Compound 224, (6,7-Dimethoxy-2,4-dihydro-indeno[1,2-c]pyrazol-3-yl)-(2-methoxy-benzyl)-amine] | 24 | – |
| COc1cccc(CNc2[nH]nc3c2Cc2cc(OC)c(OC)cc2-3)c1 [Compound 225, (6,7-Dimethoxy-2,4-dihydro-indeno[1,2-c]pyrazol-3-yl)-(3-methoxy-benzyl)-amine] | 90 | 74.4 |
| COc1cc2c(cc1OC)-c1n[nH]c(NCc3ccccc3Cl)c1C2 [Compound 230, (2-Chloro-benzyl)-(6,7-dimethoxy-2,4-dihydro-indeno[1,2-c]pyrazol-3-yl)-amine] | 90 | 1.9 |
| COc1ccc(CNc2[nH]nc3c2Cc2cc(OC)c(OC)cc2-3)cc1 [Compound 231, (6,7-Dimethoxy-2,4-dihydro-indeno[1,2-c]pyrazol-3-yl)-(4-methoxy-benzyl)-amine] | 37 | – |
| COc1cccc(Nc2n[nH]c3c2Cc2sccc2-3)c1 [Compound 232, (5,7-Dihydro-1-thia-4,5-diaza-cyclopenta[a]pentalen-6-yl)-(3-methoxy-phenyl)-amine] | 102 | 39.6 |

Continued, values first:

| inhibition at 10 µM [%] | IC50 [nM] | Structure (SMILES) |
| --- | --- | --- |
| 65.5 | 523 | COc1ccc2c(c1)-c1n[nH]c(Nc3ccc(OC(F)(F)F)cc3)c1C2 [Compound 177, (7-Methoxy-2,4-dihydro-indeno[1,2-c]pyrazol-3-yl)-(4-trifluoromethoxy-phenyl)-amine] |
| 98.5 | 132 | COc1ccc2c(c1)-c1n[nH]c(Nc3ccc(C(F)(F)F)cc3)c1C2 [Compound 178, (7-Methoxy-2,4-dihydro-indeno[1,2-c]pyrazol-3-yl)-(4-trifluoromethyl-phenyl)-amine] |
| 53 | 545 | COc1ccc(Nc2[nH]nc3c2Cc2ccc(C)cc2-3)cc1 [Compound 183, (4-Methoxy-phenyl)-(7-methyl-2,4-dihydro-indeno[1,2-c]pyrazol-3-yl)-amine] |
| 94 | 1100 | COc1ccc(OC)c(Nc2[nH]nc3c2Cc2ccc(C)cc2-3)c1 [Compound 184, (2,5-Dimethoxy-phenyl)-(7-methyl-2,4-dihydro-indeno[1,2-c]pyrazol-3-yl)-amine] |
| 78 | 414 | Cc1ccc2c(c1)-c1n[nH]c(Nc3ccc(OC(F)(F)F)cc3)c1C2 [Compound 186, (7-Methyl-2,4-dihydro-indeno[1,2-c]pyrazol-3-yl)-(4-trifluoromethoxy-phenyl)-amine] |
| 35 | – | Cc1ccc2c(c1)-c1n[nH]c(Nc3cccc(C(F)(F)F)c3)c1C2 [Compound 187, (7-Methyl-2,4-dihydro-indeno[1,2-c]pyrazol-3-yl)-(3-trifluoromethyl-phenyl)-amine] |
| 92 | 199 | COc1ccc(Nc2[nH]nc3c2Cc2cc(Cl)ccc2-3)cc1 [Compound 189, (6-Chloro-2,4-dihydro-indeno[1,2-c]pyrazol-3-yl)-(4-methoxy-phenyl)-amine] |
| 88 | 68.6 | Fc1cccc(Nc2[nH]nc3c2Cc2cc(Cl)ccc2-3)c1 [Compound 191, (6-Chloro-2,4-dihydro-indeno[1,2-c]pyrazol-3-yl)-(3-fluoro-phenyl)-amine] |
| 49 | – | FC(F)(F)c1ccc(Nc2[nH]nc3c2Cc2cc(Cl)ccc2-3)cc1 [Compound 193, (6-Chloro-2,4-dihydro-indeno[1,2-c]pyrazol-3-yl)-(4-trifluoromethyl-phenyl)-amine] |
| 87 | 2610 | FC(F)(F)Oc1ccc(Nc2[nH]nc3c2Cc2cc(Cl)ccc2-3)cc1 [Compound 194, (6-Chloro-2,4-dihydro-indeno[1,2-c]pyrazol-3-yl)-(4-trifluoromethoxy-phenyl)-amine] |
| 70 | 1290 | CN(C)c1ccc(Nc2[nH]nc3c2Cc2cc(Cl)ccc2-3)cc1 [Compound 196, N-(6-Chloro-2,4-dihydro-indeno[1,2-c]pyrazol-3-yl)-N′,N′-dimethyl-benzene-1,4-diamine] |
| 8 | – | Cc1cccc(Nc2[nH]nc3c2Cc2cc(Cl)ccc2-3)c1 [Compound 197, (6-Chloro-2,4-dihydro-indeno[1,2-c]pyrazol-3-yl)-m-tolyl-amine] |
| 72 | 138 | Cc1ccc(Nc2[nH]nc3c2Cc2cc(Cl)ccc2-3)cc1 [Compound 198, (6-Chloro-2,4-dihydro-indeno[1,2-c]pyrazol-3-yl)-p-tolyl-amine] |
| 87 | 50 | COc1cc2c(cc1OC)-c1n[nH]c(Nc3cccc(SC(F)(F)F)c3)c1C2 [Compound 211, (6,7-Dimethoxy-2,4-dihydro-indeno[1,2-c]pyrazol-3-yl)-(3-trifluoromethylsulfanyl-phenyl)-amine] |
| 84 | 775 | COc1cc2c(cc1OC)-c1n[nH]c(Nc3ccc(F)c(C(F)(F)F)c3)c1C2 [Compound 212, (6,7-Dimethoxy-2,4-dihydro-indeno[1,2-c]pyrazol-3-yl)-(4-fluoro-3-trifluoromethyl-phenyl)-amine] |
| 51 | 3480 | CN(C)CCCOc1ccc2c(c1)Cc1c-2n[nH]c1Nc1ccc(OC(F)(F)F)cc1 [Compound 217, [6-(3-Dimethylamino-propoxy)-2,4-dihydro-indeno[1,2-c]pyrazol-3-yl]-(4-trifluoromethoxy-phenyl)-amine] |
| 101 | 358 | COc1cccc(Nc2[nH]nc3c2Cc2cc(F)ccc2-3)c1 [Compound 234, (6-Fluoro-2,4-dihydro-indeno[1,2-c]pyrazol-3-yl)-(3-methoxy-phenyl)-amine] |
